Data on two compounds can be found in PMC12064607 (Clinical Pharmacokinetics, 2025).

Where two headings read alike, the source gives them in different places.

The conditions of series [1]: human, in vivo.
The test system of series [2] is BetaCoV/Belgium/GHB-03021/2020. To be noted: cited from earlier work.
For series [3], the system named is WA1. Further details: method as in Pitts et al[4]. Particulars: A549-ACE2-TMPRSS, Nucleoprotein ELISA, ref Pitts et al[4]; cited from earlier work. (ELISA stands for enzyme-linked immunosorbent assay.)
For series [4], the system named is Delta. Particulars: A549-ACE2-TMPRSS, Nucleoprotein ELISA, ref Pitts et al[4]; cited from earlier work.
Series [5] concerns Omicron. Particulars: A549-ACE2-TMPRSS, Nucleoprotein ELISA, ref Pitts et al[4]; cited from earlier work.
Series [6] concerns Omicron/BA.2. Further details: method as in Takashita et al[5]. Particulars: Vero E6, Focus reduction, ref Takashita et al[5]; cited from earlier work.
Series [7] in a line: clinical. To be noted: human, in vivo.
In series [8] the test system is plasma protein. To be noted: cited from earlier work.
For series [9] the following is noted: plasma samples; cited from earlier work.
The subject of series [10] is nCoV-2019BetaCoV/Wuhan/WIV04/2019. To be noted: cited from earlier work.
In series [11] the test system is BetaCoV/France/IDF0571/2020. To be noted: cited from earlier work.
The conditions of series [12]: human, in vivo; cited from earlier work.

What is called EC50 is the concentration at which the effect is half-maximal. In general, clearance refers to the volume of plasma or blood freed of the substance per unit of time. Regarding `N#C[C@@]1(c2ccc3c(N)ncnn23)O[C@H](CO)[C@@H](O)[C@H]1O` [GS-441524], in series [1], the “Age effect on V, bootstrap median” value is reported as “–1.18”; the “Age effect on V, final model mean” value is “–1.15”; the “V/fm, bootstrap median” value is 429 L; the “V/fm, final model mean” value is on record as 429 L. In [1], the “eGFR effect on CL, bootstrap median” value turned out to be 1.23 and the “eGFR effect on CL, final model mean” value was determined as 1.12. Also, the EC50 in series [2] was 510 nM. The EC50 in series [3] was 5600 nM. Further, the 50% effective concentration (EC50) in series [4] is 3260 nM. Further, in [5], the EC50 is 3150 nM. In [6], the EC50 was 2850 nM. In series [7] (CL/fm, bootstrap median), this compound showed a clearance of 267 mL/min. In series [7] (CL/fm, final model mean), this compound showed a clearance of 265 mL/min. Moreover, the protein binding in series [8] was 2%. The “stable at room temperature” value in series [9] is given as 48 h.
As a reminder, the EC90 is the concentration at which the effect reaches the 90% level. For `CCC(CC)COC(=O)[C@H](C)N[P@](=O)(OC[C@H]1O[C@@](C#N)(c2ccc3c(N)ncnn23)[C@H](O)[C@@H]1O)Oc1ccccc1` [Remdesivir, reference compound], the “V, bootstrap median” value in series [1] turned out to be 111 L. Moreover, the EC50 is 770 nM in series [10]; 990 nM in series [11]; 48 nM in [2]; 70 nM in series [4]; 42 nM in series [5]. Also, the EC90 in series [10] was 1760 nM. Moreover, the clearance in series [7] (CL, bootstrap median) is 1670 mL/min; in [7] (iv, CL, final model mean), 1600 mL/min; in series [12] it was 207 L/h. Further, the protein binding in [8] (human) is 97%.
